Reference: US9133187B2, “Serine/threonine kinase inhibitors” (ARRAY BIOPHARMA INC., priority 2011, dated 2015)
Structures can show the parent of a compound that is named as a salt.

Columns and labels:
[1] = tested on: PMA-stimulated P90RSK(Ser380) phosphorylation in HepG2 cells; assay: Cellular P90RSK(Ser380) Phosphorylation Assay; type: cell-based; conditions: Homo sapiens, 1.5 h compound incubation, PMA stimulation, pP90RSK(Ser380) normalized to GAPDH, read-out: Cell Assay IC50
Protocol: Inhibition of PMA-stimulated P90RSK(Ser380) phosphorylation was determined by the following in vitro cellular mechanistic assay, which comprises incubating cells with a compound for 1.5 hours and quantifying fluorescent pP90RSK(Ser380) signal on fixed cells and normalizing to GAPDH signal.
Materials and Methods: HepG2 cells were obtained from ATCC and grown in DMEM supplemented with 10% fetal bovine serum. Cells were plated in 96-well plates at 35,000 cells/well and allowed to attach overnight at 37° C./5% CO2. Diluted compounds were then added at a final concentration of 0.5% DMSO. After 1.5 hour compound incubation, cells were stimulated with the addition of PMA (phorbol 12-myristate 13-acetate) at a final concentration of 100 ng/mL; the PMA stimulation was a 30-minute incubation at 37° C./5% CO2. After the 30-minute PMA stimulation, cells were washed with PBS and fixed in 3.7% formaldehyde in PBS at room temperature for 15-20 minutes. This was followed by another wash in PBS and then permeabilization in 100% MeOH at room temperature for 10-15 minutes. Following the permeabilization incubation, cells were washed in PBS/0.05% Tween-20, followed by a block in Odyssey blocking buffer (LI-COR Biosciences) for at least 1 hour. Antibodies to phosphorylated P90RSK(Ser380) (Cell Signaling #9335, rabbit monoclonal) and GAPDH (Fitzgerald 10R-G109a, mouse monoclonal) were added to the cells and incubated overnight at 4° C. pP90RSK(Ser380) antibody was used at a 1:250 dilution; GAPDH was used at a 1:10,000 dilution. After washing with PBS/0.05% Tween-20, the cells were incubated with fluorescently-labeled secondary antibodies (Anti-rabbit-Alexa Flour680, Invitrogen Cat#A21109; Anti-mouse-IRDye800CW, Rockland Inc. Cat#610-131-121) for 1 hour. Both secondary antibodies were used at a 1:1000 dilution. Cells were then washed and analyzed for fluorescence at both wavelengths using the Odyssey Infrared Imaging System (LI-COR Biosciences). Phosphorylated P90RSK(Ser380) signal was normalized to GAPDH signal. Representative date is in TABLE III (infra).

[2] = molecular target: human ERK-2 (Mitogen Activated Kinase 1) (Homo sapiens (Human), UniProt P28482); assay: ERK-2 Enzymatic Assay; type: biochemical; conditions: 5 nM ERK-2, 25 μM ATP, Omnia peptide S/T17; read-out: ERK Inhibition IC50
Sequence of human ERK-2 (Mitogen Activated Kinase 1) (P28482 8-360): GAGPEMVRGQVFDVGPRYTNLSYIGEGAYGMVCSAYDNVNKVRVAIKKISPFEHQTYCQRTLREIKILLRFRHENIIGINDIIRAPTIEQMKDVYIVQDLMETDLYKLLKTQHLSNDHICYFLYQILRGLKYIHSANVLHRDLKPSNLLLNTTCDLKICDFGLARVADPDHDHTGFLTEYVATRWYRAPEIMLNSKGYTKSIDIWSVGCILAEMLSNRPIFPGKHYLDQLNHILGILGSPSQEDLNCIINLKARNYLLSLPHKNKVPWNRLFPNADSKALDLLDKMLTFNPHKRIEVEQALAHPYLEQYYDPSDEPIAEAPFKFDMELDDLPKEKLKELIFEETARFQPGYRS
Protocol: Compounds were tested in an enzymatic assay using human ERK-2 (Mitogen Activated Kinase 1), recombinantly expressed as an n-terminal 6-His fusion protein in E. coli and corresponding to aa 8-360. The substrate used was the fluorescent Omnia peptide S/T17 (Invitrogen of Carlsbad, Calif.; Cat. KNZ1171C). Test compounds were diluted in DMSO in 3-fold serial dilutions at 100× final concentrations. […] The assay was run at ambient temperature in a white 384-well polypropylene plate (Nunc, Inc of Naperville, Ill.; Cat. 267462) collecting data every 50 seconds for approximately 30 minutes on an Envision plate reader (PerkinElmer, Inc. of Waltham, Mass.); Excitation 340 nm/Emission 495 nm. The data collected from each well was fit to a straight line and the resulting rates were used to calculate percent of control. Percent of control was plotted against compound concentration and IC50 values were determined using a four-parameter fit.

`CC(C)Nc1ncc2c(n1)CN(C(=O)N[C@H](CCO)c1ccc(C(F)(F)F)c(F)c1)CC2` [II-72, 2-Isopropylamino-5,8-dihydro-6H-pyrido[3,4-d]pyrimidine-7-carboxylic acid [(R)-1-(3-fluoro-4-trifluoromethyl-phenyl)-3-hydroxy-propyl]-amide] showed an IC50 [1] of 208 nM and an IC50 [2] of 7.2 nM.
Work on `C[C@@H](NC(=O)N1CCc2cnc(N[C@H]3C[C@@H](O)C3)nc2C1)c1ccc(Cl)c(Cl)c1` [II-371, 2-((1S,3S)-3-Hydroxy-cyclobutylamino)-5,8-dihydro-6H-pyrido[3,4-d]pyrimidine-7-carboxylic acid [(R)-1-(3,4-dichloro-phenyl)-ethyl]amide] yielded an IC50 [1] of 90 nM and an IC50 [2] of 3.15 nM.
`O=C(N1CCc2cnc(NC3CCOCC3)nc2C1)N1CCCC1c1ccc(F)cc1` (stereo not shown) [Compound I-134, (2-(4-fluorophenyl)pyrrolidin-1-yl)(2-(tetrahydro-2H-pyran-4-ylamino)-5,6-dihydropyrido[3,4-d]pyrimidin-7(8H)-yl)methanone] gave an IC50 [1] of 1200 nM and an IC50 [2] of 20.4 nM.
In the case of `O=C(N[C@@H](c1ccc(Cl)c(F)c1)[C@@H]1CNCCO1)N1CCc2cnc(NC3CCOCC3)nc2C1` (mixture of isomers) [Compound I-144, N—((R)-(4-chloro-3-fluorophenyl)((R)-morpholin-2-yl)methyl)-2-(tetrahydro-2H-pyran-4-ylamino)-5,6-dihydropyrido[3,4-d]pyrimidine-7(8H)-carboxamide and N—((S)-(4-chloro-3-fluorophenyl)((S)-morpholin-2-yl)methyl)-2-(tetrahydro-2H-pyran-4-ylamino)-5,6-dihydropyrido[3,4-d]pyrimidine-7(8H)-carboxamide mixture], the IC50 [1] is reported as 91.3 nM and the IC50 [2] is reported as 2.3 nM.
With `C[C@@H](NC(=O)N1CCc2cnc(N[C@H](CO)Cc3ccccc3)nc2C1)c1ccc(Cl)c(Cl)c1` [II-111, 2-((S)-1-Hydroxymethyl-2-phenyl-ethylamino)-5,8-dihydro-6H-pyrido[3,4-d]pyrimidine-7-carboxylic acid [(R)-1-(3,4-dichloro-phenyl)-ethyl]-amide] the IC50 [1] was 693 nM and the IC50 [2] was 4.7 nM.
`CNC[C@@H](NC(=O)N1CCc2cnc(Nc3ccc(F)cc3)nc2C1)c1ccc(F)c(Cl)c1` [II-35, 2-(4-Fluoro-phenylamino)-5,8-dihydro-6H-pyrido[3,4-d]pyrimidine-7-carboxylic acid [(S)-1-(3-chloro-4-fluoro-phenyl)-2-methylamino-ethyl]-amide] showed an IC50 [1] of 160 nM and an IC50 [2] of 21.5 nM.
For `CC(C)Nc1ncc2c(n1)CN(C(=O)N[C@@H](c1ccc(Cl)c(Cl)c1)[C@H](O)CO)CC2` [Compound I-62, N-((1S,2S)-1-(3,4-dichlorophenyl)-2,3-dihydroxypropyl)-2-(isopropylamino)-5,6-dihydropyrido[3,4-d]pyrimidine-7(8H)-carboxamide], the IC50 [1] was 109 nM and the IC50 [2] was 2.4 nM.
`CC(C)Nc1ncc2c(n1)CN(C(=O)NCc1cc3ccccc3[nH]1)CC2` [II-195, 2-Isopropylamino-5,8-dihydro-6H-pyrido[3,4-d]pyrimidine-7-carboxylic acid (1H-indol-2-ylmethyl)-amide] gave an IC50 [1] of 281 nM and an IC50 [2] of 6.6 nM.
`O=C(NC(c1cn[nH]c1)c1ccc(Cl)c(F)c1)N1CCc2cnc(NC3CCOCC3)nc2C1` (stereo not shown) [Compound I-7, N-((4-chloro-3-fluorophenyl)(1H-pyrazol-4-yl)methyl)-2-(tetrahydro-2H-pyran-4-ylamino)-5,6-dihydropyrido[3,4-d]pyrimidine-7(8H)-carboxamide] gave an IC50 [1] of 43.5 nM and an IC50 [2] of 1.5 nM.
Compound `C[C@@H](NC(=O)N1CCc2cnc(NC3CC(F)(F)C3)nc2C1)c1ccc(Cl)c(Cl)c1` [II-355, 2-(3,3-Difluoro-cyclobutylamino)-5,8-dihydro-6H-pyrido[3,4-d]pyrimidine-7-carboxylic acid [(R)-1-(3,4-dichloro-phenyl)-ethyl]-amide] has an IC50 [1] of 970 nM and an IC50 [2] of 7.5 nM.
`CC(NC(=O)N1CCc2cnc(NC3CCOCC3)nc2C1)c1ccc2cc[nH]c2c1` (stereo not shown) [Compound I-107, N-(1-(1H-indol-6-yl)ethyl)-2-(tetrahydro-2H-pyran-4-ylamino)-5,6-dihydropyrido[3,4-d]pyrimidine-7(8H)-carboxamide] was tested, and the IC50 [1] was 30 nM and the IC50 [2] was 2.7 nM.
Work on `CNC[C@@H](NC(=O)N1CCc2cnc(Nc3ccc(F)cc3)nc2C1)c1ccc(C(F)(F)F)c(F)c1` [Compound I-68, (S)—N-(1-(3-fluoro-4-(trifluoromethyl)phenyl)-2-(methylamino)ethyl)-2-(4-fluorophenylamino)-5,6-dihydropyrido[3,4-d]pyrimidine-7(8H)-carboxamide hydrochloride] yielded an IC50 [1] of 146 nM and an IC50 [2] of 2.3 nM.
In the case of `N#CC[C@@H](NC(=O)N1CCc2cnc(NC3CCOCC3)nc2C1)c1ccc(F)c(Cl)c1` [Compound I-59, (R)—N-(1-(3-chloro-4-fluorophenyl)-2-cyanoethyl)-2-(tetrahydro-2H-pyran-4-ylamino)-5,6-dihydropyrido[3,4-d]pyrimidine-7(8H)-carboxamide], the IC50 [1] is reported as 85.5 nM and the IC50 [2] is reported as 0.6 nM.
In the case of `CC(C)Nc1ncc2c(n1)CN(C(=O)NC1(c3ccc(Cl)c(Cl)c3)CCNCC1)CC2` [Compound I-93, N-(4-(3,4-dichlorophenyl)piperidin-4-yl)-2-(isopropylamino)-5,6-dihydropyrido[3,4-d]pyrimidine-7(8H)-carboxamide], the IC50 [1] is reported as 6200 nM and the IC50 [2] is reported as 3.8 nM.
`COCCOC[C@@H](NC(=O)N1CCc2cnc(N[C@@H](C)CO)nc2C1)c1ccc(F)c(Cl)c1` [II-78, 2-((S)-2-Hydroxy-1-methyl-ethylamino)-5,8-dihydro-6H-pyrido[3,4-d]pyrimidine-7-carboxylic acid [(S)-1-(3-chloro-4-fluoro-phenyl)-2-(2-methoxy-ethoxy)-ethyl]-amide] was tested, and the IC50 [1] was 1400 nM and the IC50 [2] was 17.7 nM.
`O=C(NC(c1ccc(Cl)c(F)c1)c1nnco1)N1CCc2cnc(NC3CCOCC3)nc2C1` (stereo not shown) [Compound I-9, N-((4-chloro-3-fluorophenyl)(1,3,4-oxadiazol-2-yl)methyl)-2-(tetrahydro-2H-pyran-4-ylamino)-5,6-dihydropyrido[3,4-d]pyrimidine-7(8H)-carboxamide] gave an IC50 [1] of 71.7 nM and an IC50 [2] of 2.4 nM.
Compound `O=C(NC1(c2ccc(Cl)cc2)CCNC1)N1CCc2cnc(Nc3ccc(F)cc3)nc2C1` (stereo not shown) [II-64, 2-(4-Fluoro-phenylamino)-5,8-dihydro-6H-pyrido[3,4-d]pyrimidine-7-carboxylic acid [3-(4-chloro-phenyl)-pyrrolidin-3-yl]-amide] has an IC50 [1] of 3100 nM and an IC50 [2] of 38.3 nM.
In the case of `O=C(NC(c1ccc(Cl)c(F)c1)c1nnco1)N1CCc2cnc(NC3CCOCC3)nc2C1` (stereo in doubt) [II-359, 2-(Tetrahydro-pyran-4-ylamino)-5,8-dihydro-6H-pyrido[3,4-d]pyrimidine-7-carboxylic acid [(R)-(4-chloro-3-fluoro-phenyl)-[1,3,4]oxadiazol-2-yl-methyl]-amide], the IC50 [1] is reported as 30 nM and the IC50 [2] is reported as 2.4 nM.
`C[C@@H](CO)Nc1ncc2c(n1)CN(C(=O)NCc1nc3ccccc3o1)CC2` [II-151, 2-((S)-2-Hydroxy-1-methyl-ethylamino)-5,8-dihydro-6H-pyrido[3,4-d]pyrimidine-7-carboxylic acid (benzooxazol-2-ylmethyl)-amide] showed an IC50 [1] of 10000 nM and an IC50 [2] of 52.8 nM.
`N#CCN1C[C@@H](NC(=O)N2CCc3cnc(NC4CCOCC4)nc3C2)[C@H](c2ccc(F)c(F)c2)C1` [II-341, 2-(Tetrahydro-pyran-4-ylamino)-5,8-dihydro-6H-pyrido[3,4-d]pyrimidine-7-carboxylic acid [(3S,4R)-1-cyanomethyl-4-(3,4-difluoro-phenyl)-pyrrolidin-3-yl]-amide] showed an IC50 [1] of 371 nM and an IC50 [2] of 4 nM.
